Test system: human ventricular trabeculae
Experiment: Action potential recording and pro-arrhythmic score analysis in human ventricular trabeculae (hVT);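 also: sharp microelectrode action potential recordings at 37°C in Tyrode-perfused trabeculae, 4 cumulative concentrations each applied 31 min, values averaged over last 30 APs, vehicle 0.1% DMSO as control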
Settings: for Refractoriness Escape (raw data) / Beat Escape (raw data) / EADs (raw data): n=4 trabeculae

Nc1nnc(-c2cccc(Cl)c2Cl)c(N)n1 [LAMOTRIGINE, Lamotrigine]
Refractoriness Escape (raw data) (1Hz, 59-FOLD free ETPC (17µM)): 0
AMAX (average raw data) (2Hz, 0.6-FOLD free ETPC (17µM)): 97
AMAX percentage change compared to vehicle control (2Hz, 0.6-FOLD free ETPC (17µM)): -7%
APD30 (average raw data) (2Hz, 0.6-FOLD free ETPC (17µM)): 107
APD30 percentage change compared to vehicle control (2Hz, 0.6-FOLD free ETPC (17µM)): 2%
APD50 (average raw data) (2Hz, 0.6-FOLD free ETPC (17µM)): 149
APD50 percentage change compared to vehicle control (2Hz, 0.6-FOLD free ETPC (17µM)): 3%
APD90 (average raw data) (2Hz, 0.6-FOLD free ETPC (17µM)): 232
APD90 percentage change compared to vehicle control (2Hz, 0.6-FOLD free ETPC (17µM)): 2%
Alternans (average raw data) (2Hz, 0.6-FOLD free ETPC (17µM)): 0.95
Alternans percentage change compared to vehicle control (2Hz, 0.6-FOLD free ETPC (17µM)): -59%
Beat Escape percentage change compared to vehicle control (2Hz, 0.6-FOLD free ETPC (17µM)): 0%
EADs percentage change compared to vehicle control (2Hz, 0.6-FOLD free ETPC (17µM)): 0%
ERP (average raw data) (2Hz, 0.6-FOLD free ETPC (17µM)): 0.46
ERP percentage change compared to vehicle control (2Hz, 0.6-FOLD free ETPC (17µM)): 4%
Max Dispersion (average raw data) (2Hz, 0.6-FOLD free ETPC (17µM)): 6.98
Max Dispersion percentage change compared to vehicle control (2Hz, 0.6-FOLD free ETPC (17µM)): 7%
RMP (average raw data) (2Hz, 0.6-FOLD free ETPC (17µM)): -82
RMP percentage change compared to vehicle control (2Hz, 0.6-FOLD free ETPC (17µM)): -3%
Refractoriness Escape percentage change compared to vehicle control (2Hz, 0.6-FOLD free ETPC (17µM)): 0%
STV (average raw data) (2Hz, 0.6-FOLD free ETPC (17µM)): 0.58
Triangulation (average raw data) (2Hz, 0.6-FOLD free ETPC (17µM)): 124
Triangulation percentage change compared to vehicle control (2Hz, 0.6-FOLD free ETPC (17µM)): 2%
Beat Escape (raw data) (2Hz, 0.6-FOLD free ETPC (17µM)): 0
EADs (raw data) (2Hz, 0.6-FOLD free ETPC (17µM)): 0
Refractoriness Escape (raw data) (2Hz, 0.6-FOLD free ETPC (17µM)): 0
AMAX (average raw data) (2Hz, 6-FOLD free ETPC (17µM)): 103
AMAX percentage change compared to vehicle control (2Hz, 6-FOLD free ETPC (17µM)): -2%
APD30 (average raw data) (2Hz, 6-FOLD free ETPC (17µM)): 103
APD30 percentage change compared to vehicle control (2Hz, 6-FOLD free ETPC (17µM)): -1%
APD50 (average raw data) (2Hz, 6-FOLD free ETPC (17µM)): 139
APD50 percentage change compared to vehicle control (2Hz, 6-FOLD free ETPC (17µM)): -3%
APD90 (average raw data) (2Hz, 6-FOLD free ETPC (17µM)): 221
APD90 percentage change compared to vehicle control (2Hz, 6-FOLD free ETPC (17µM)): -3%
Alternans (average raw data) (2Hz, 6-FOLD free ETPC (17µM)): 4.34
Alternans percentage change compared to vehicle control (2Hz, 6-FOLD free ETPC (17µM)): 90%
Beat Escape percentage change compared to vehicle control (2Hz, 6-FOLD free ETPC (17µM)): 25%
EADs percentage change compared to vehicle control (2Hz, 6-FOLD free ETPC (17µM)): 0%
ERP (average raw data) (2Hz, 6-FOLD free ETPC (17µM)): 0.41
ERP percentage change compared to vehicle control (2Hz, 6-FOLD free ETPC (17µM)): -7%
Max Dispersion (average raw data) (2Hz, 6-FOLD free ETPC (17µM)): 10.50
Max Dispersion percentage change compared to vehicle control (2Hz, 6-FOLD free ETPC (17µM)): 62%
RMP (average raw data) (2Hz, 6-FOLD free ETPC (17µM)): -87
RMP percentage change compared to vehicle control (2Hz, 6-FOLD free ETPC (17µM)): 3%
Refractoriness Escape percentage change compared to vehicle control (2Hz, 6-FOLD free ETPC (17µM)): 0%
STV (average raw data) (2Hz, 6-FOLD free ETPC (17µM)): 2.93
Triangulation (average raw data) (2Hz, 6-FOLD free ETPC (17µM)): 117
Triangulation percentage change compared to vehicle control (2Hz, 6-FOLD free ETPC (17µM)): -4%
Beat Escape (raw data) (2Hz, 6-FOLD free ETPC (17µM)): 1
EADs (raw data) (2Hz, 6-FOLD free ETPC (17µM)): 0
Refractoriness Escape (raw data) (2Hz, 6-FOLD free ETPC (17µM)): 0
AMAX (average raw data) (2Hz, 18-FOLD free ETPC (17µM)): 85
AMAX percentage change compared to vehicle control (2Hz, 18-FOLD free ETPC (17µM)): -16%
APD30 (average raw data) (2Hz, 18-FOLD free ETPC (17µM)): 110
APD30 percentage change compared to vehicle control (2Hz, 18-FOLD free ETPC (17µM)): 4%
APD50 (average raw data) (2Hz, 18-FOLD free ETPC (17µM)): 139
APD50 percentage change compared to vehicle control (2Hz, 18-FOLD free ETPC (17µM)): -4%
APD90 (average raw data) (2Hz, 18-FOLD free ETPC (17µM)): 227
APD90 percentage change compared to vehicle control (2Hz, 18-FOLD free ETPC (17µM)): 2%
Alternans (average raw data) (2Hz, 18-FOLD free ETPC (17µM)): 34.70
Alternans percentage change compared to vehicle control (2Hz, 18-FOLD free ETPC (17µM)): 1417%
Beat Escape percentage change compared to vehicle control (2Hz, 18-FOLD free ETPC (17µM)): 100%
EADs percentage change compared to vehicle control (2Hz, 18-FOLD free ETPC (17µM)): 0%
ERP (average raw data) (2Hz, 18-FOLD free ETPC (17µM)): 0.33
ERP percentage change compared to vehicle control (2Hz, 18-FOLD free ETPC (17µM)): -25%
Max Dispersion (average raw data) (2Hz, 18-FOLD free ETPC (17µM)): 42.23
Max Dispersion percentage change compared to vehicle control (2Hz, 18-FOLD free ETPC (17µM)): 550%
RMP (average raw data) (2Hz, 18-FOLD free ETPC (17µM)): -90
RMP percentage change compared to vehicle control (2Hz, 18-FOLD free ETPC (17µM)): 10%
Refractoriness Escape percentage change compared to vehicle control (2Hz, 18-FOLD free ETPC (17µM)): 0%
STV (average raw data) (2Hz, 18-FOLD free ETPC (17µM)): 18.59
Triangulation (average raw data) (2Hz, 18-FOLD free ETPC (17µM)): 117
Triangulation percentage change compared to vehicle control (2Hz, 18-FOLD free ETPC (17µM)): -1%
Beat Escape (raw data) (2Hz, 18-FOLD free ETPC (17µM)): 4
EADs (raw data) (2Hz, 18-FOLD free ETPC (17µM)): 0
Refractoriness Escape (raw data) (2Hz, 18-FOLD free ETPC (17µM)): 0
AMAX (average raw data) (2Hz, 59-FOLD free ETPC (17µM)): 48
AMAX percentage change compared to vehicle control (2Hz, 59-FOLD free ETPC (17µM)): -52%
APD30 (average raw data) (2Hz, 59-FOLD free ETPC (17µM)): 106
APD30 percentage change compared to vehicle control (2Hz, 59-FOLD free ETPC (17µM)): 4%
APD50 (average raw data) (2Hz, 59-FOLD free ETPC (17µM)): 145
APD50 percentage change compared to vehicle control (2Hz, 59-FOLD free ETPC (17µM)): 7%
APD90 (average raw data) (2Hz, 59-FOLD free ETPC (17µM)): 268
APD90 percentage change compared to vehicle control (2Hz, 59-FOLD free ETPC (17µM)): 34%
Alternans (average raw data) (2Hz, 59-FOLD free ETPC (17µM)): 3.93
Alternans percentage change compared to vehicle control (2Hz, 59-FOLD free ETPC (17µM)): 72%
Beat Escape percentage change compared to vehicle control (2Hz, 59-FOLD free ETPC (17µM)): 100%
EADs percentage change compared to vehicle control (2Hz, 59-FOLD free ETPC (17µM)): 0%
ERP (average raw data) (2Hz, 59-FOLD free ETPC (17µM)): 0.41
ERP percentage change compared to vehicle control (2Hz, 59-FOLD free ETPC (17µM)): -7%
Max Dispersion (average raw data) (2Hz, 59-FOLD free ETPC (17µM)): 21.90
Max Dispersion percentage change compared to vehicle control (2Hz, 59-FOLD free ETPC (17µM)): 237%
RMP (average raw data) (2Hz, 59-FOLD free ETPC (17µM)): -74
RMP percentage change compared to vehicle control (2Hz, 59-FOLD free ETPC (17µM)): -6%
Refractoriness Escape percentage change compared to vehicle control (2Hz, 59-FOLD free ETPC (17µM)): 0%
STV (average raw data) (2Hz, 59-FOLD free ETPC (17µM)): 2.81
Triangulation (average raw data) (2Hz, 59-FOLD free ETPC (17µM)): 162
Triangulation percentage change compared to vehicle control (2Hz, 59-FOLD free ETPC (17µM)): 64%
Beat Escape (raw data) (2Hz, 59-FOLD free ETPC (17µM)): 4
EADs (raw data) (2Hz, 59-FOLD free ETPC (17µM)): 0
Refractoriness Escape (raw data) (2Hz, 59-FOLD free ETPC (17µM)): 0
TdP identification by pro-arrhythmic score (at 10-fold human free ETPC, score >10 unsafe, <10 safe): TdP positive
pro-arrhythmic score (at 100, 300, and 1,000 μM): above 40
pro-arrhythmic score (at therapeutic exposure): below 10

Source: paper PMC5760531, “Action Potential Recording and Pro-arrhythmia Risk Analysis in Human Ventricular Trabeculae” (Frontiers in Physiology, 2018)
